Measured values as given in patent US20170245538A1, “SOLID DISPERSION OF AMIDE FLAVOR COMPOUNDS” (Firmenich SA, priority 2014, published 2017).

Assay: dissolution kinetics in water followed on-line by UV/Vis spectroscopy
Type: physicochemical
Details: 20 mg pure compound in 1L milli Q water at 60° C.
Description: The dissolution kinetics of example 4 in water was tested. A final concentration of (E)-3-(3,4-dimethoxyphenyl)-N-(4-methoxyphenethyl)acrylamide of 20 ppm dissolved in water was targeted. Eighty (80) mg of a solid dispersion of (E)-3-(3,4-dimethoxyphenyl)-N-(4-methoxyphenethyl)acrylamide and gum arabic was dispersed in 1L of milli Q water heated at 60° C. The solution was stirred mechanically by the means of a paddle stirrer at 200 rpm. The dissolution process was followed on-line by monitoring the UV signal of dissolved (E)-3-(3,4-dimethoxyphenyl)-N-(4-methoxyphenethyl)acrylamide with UV/Vis spectroscopy using a fiber optic probe from Ocean Optics. The powder was entirely dissolved after 2 minutes. The maximum dissolution rate during the process was 28 ppm/minute.
Comparative example: (E)-3-(3,4-dimethoxyphenyl)-N-(4-methoxyphenethyl)acrylamide pure. A final concentration of (E)-3-(3,4-dimethoxyphenyl)-N-(4-methoxyphenethyl)acrylamide of 20 ppm dissolved in water was targeted. Twenty (20) mg of the pure (E)-3-(3,4-dimethoxyphenyl)-N-(4-methoxyphenethyl)acrylamide were dispersed in 1L of milli Q water heated at 60° C. The dissolution process yielded 50% of the target concentration of 20 ppm (10 ppm) after 78 minutes. The target concentration could not be achieved after 6 hours. The concentration of dissolved (E)-3-(3,4-dimethoxyphenyl)-N-(4-methoxyphenethyl)acrylamide after 6 hours was 15 ppm (75% of target).

COc1ccc(CCNC(=O)/C=C/c2ccc(OC)c(OC)c2)cc1 [(E)-3-(3,4-dimethoxyphenyl)-N-(4-methoxyphenethyl)acrylamide]
time to 50% of the target concentration of 20 ppm (10 ppm): 78 min
concentration of dissolved compound after 6 hours (after 6 hours): 15 ppm
dissolved compound after 6 hours as % of target (after 6 hours, target 20 ppm): 75 % of target
time to achieve the target concentration (20 ppm) (target could not be achieved): > 6 h
